Reference: patent US20070093476A1, “Novel compounds and their use in medicine,as antidiabetic and hypolipidemic agents, process for their preparation and pharmaceutical compositions containing them” (priority 2003, published 2007)
Structures can show the parent of a compound that is named as a salt. Where two headings read alike, the source gives them in different places.

Assays:
[1] = test system: Swiss albino mice; assay: Plasma triglyceride lowering activity in Swiss albino mice; format: in vivo; details: Mus musculus, 144 h, read-out: % of Reduction in Triglyceride
Method: b) Plasma Triglyceride and Total Cholesterol Lowering Activity in Swiss Albino Mice and Guinea Pigs
Male Swiss albino mice (SAM) and male Guinea pigs are obtained from NIN and housed in DRF animal house. All these animals are maintained under 12 hour light and dark cycle at 25±1° C. Animals are given standard laboratory chow (NIN, Hyderabad, India) and water, ad libitum. SAM of 20-25 g body weight range and Guinea pigs of 500-700 g body weight range are used (Oliver, P., Plancke, M. O., Marzin, D., Clavey, V., Sauzieres, J and Fruchart, J. C. Effects of fenofibrate, gemfibrozil and nicotinic acid on plasma lipoprotein levels in normal and hyperlipidemic mice. Atherosclerosis. 1988. 70 : 107-114).
The test compounds can be administered orally to Swiss albino mice at 0.3 to 30 mg/kg/day dose for 6 days. Control mice are treated with vehicle (0.25% Carboxymethylcellulose; dose 10 ml/kg). The test compounds are administered orally to Guinea pigs at 0.3 to 30 mg/kg/day dose for 6 days. Control animals are treated with vehicle (0.25% Carboxymethylcellulose; dose 5 ml/kg).
The blood samples can be collected in fed state 1 hour after drug administration on 0 and 6 day of treatment. The blood can be collected from the retro-orbital sinus through heparinised capillary in EDTA containing tubes. After centrifugation, plasma sample was separated for triglyceride and total cholesterol (Wieland, O. Methods of Enzymatic analysis. Bergermeyer, H. O., Ed., 1963. 211-214; Trinder, P. Ann. Clin. Biochem. 1969. 6 : 24-27). Measurement of plasma triglyceride, total cholesterol and HDL are done using commercial kits (Dr. Reddy's Diagnostic Division, Hyderabad, India).

[2] = biological target: T1, hPPARα (Homo sapiens, UniProt Q07869); assay: Determination of hPPARα activity (GAL4-LBD luciferase reporter transactivation in HEK-293 cells); format: cell-based; details: 50 μM compound
T1 construct: expressed in transfected cells; host or cells: HEK-293
T1 sequence (Q07869 239-466 limits assumed): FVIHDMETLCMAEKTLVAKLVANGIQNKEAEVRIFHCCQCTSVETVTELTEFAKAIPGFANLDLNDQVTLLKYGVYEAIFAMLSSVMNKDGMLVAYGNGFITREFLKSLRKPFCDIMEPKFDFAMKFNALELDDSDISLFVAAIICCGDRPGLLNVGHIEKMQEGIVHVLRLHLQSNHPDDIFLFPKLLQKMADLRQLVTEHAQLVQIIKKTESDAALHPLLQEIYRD
Method: a) Determination of hPPARα Activity Ligand binding domain of hPPARα was fused to […] of Yeast transcription factor GAL4 in eucaryotic expression vector. Using superfect (Qiagen, Germany) as transfecting reagent HEK-293 cells are transfected with this plasmid and a reporter plasmid harboring the luciferase gene driven by a GAL4 specific promoter. Compound can be added at different concentrations after 42 hrs of transfection and incubated overnight. Luciferase activity as a function of compound binding/activation capacity of PPARα will be measured using Packard Luclite kit (Packard, USA) in Top Count (Ivan Sadowski, Brendan Bell, Peter Broag and Melvyn Hollis. Gene. 1992. 118 : 137-141; Superfect Transfection Reagent Handbook. February 1997. Qiagen, Germany).

[3] = biological target: T2, hPPARγ1 (Homo sapiens, UniProt P37231); assay: Determination of hPPARγ activity (GAL4-LBD luciferase reporter transactivation in HEK-293 cells); format: cell-based; details: 1 μM compound
T2 construct: expressed in transfected cells; host or cells: HEK-293
T2 sequence (P37231 238-503 limits assumed): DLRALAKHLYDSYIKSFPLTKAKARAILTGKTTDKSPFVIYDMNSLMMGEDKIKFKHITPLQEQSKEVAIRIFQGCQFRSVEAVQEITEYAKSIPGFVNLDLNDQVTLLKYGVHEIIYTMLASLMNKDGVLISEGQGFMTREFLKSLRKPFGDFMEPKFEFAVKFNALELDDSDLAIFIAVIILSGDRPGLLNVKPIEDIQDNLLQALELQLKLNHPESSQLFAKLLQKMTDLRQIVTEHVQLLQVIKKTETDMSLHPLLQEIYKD
Method: b) Determination of hPPARγ Activity
Ligand binding domain of hPPARγ1 is fused to DNA binding domain of Yeast transcription factor GAL4 in eucaryotic expression vector. Using lipofectamine (Gibco BRL, USA) as transfecting reagent HEK-293 cells are transfected with this plasmid and a reporter plasmid harboring the luciferase gene driven by a GAL4 specific promoter. Compound can be added at 1 μM concentration after 48 hrs of transfection and incubated overnight Luciferase activity as a function of drug binding/activation capacity of PPARγ1 will be measured using Packard Luclite kit (Packard, USA) in Packard Top Count (Ivan Sadowski, Brendan Bell, Peter Broag and Melvyn Hollis. Gene. 1992. 118 : 137-141; Guide to Eukaryotic Transfections with Cationic Lipid Reagents. Life Technologies, GIBCO BRL, USA).

[4] = test system: C57BL/KsJ-db/db mice; assay: Efficacy in genetic model: plasma glucose and triglyceride lowering in db/db mice; format: in vivo; details: 3 mg/kg/d oral gavage, 6 days
Description: a) Efficacy in Genetic Models
Mutation in colonies of laboratory animals and different sensitivities to dietary regimens have made the development of animal models with non-insulin dependent diabetes and hyperlipidemia associated with obesity and insulin resistance possible. Genetic models such as db/db and ob/ob (Diabetes, (1982) 31(1) : 1-6) mice and zucker fa/fa rats have been developed by the various laboratories for understanding the pathophysiology of disease and testing the efficacy of new antidiabetic compounds (Diabetes, (1983) 32: 830-838; Annu. Rep. Sankyo Res. Lab. (1994). 46: 1-57). The homozygous animals, C57 BL/KsJ-db/db mice developed by Jackson Laboratory, US, are obese, hyperglycemic, hyperinsulinemic and insulin resistant (J. Clin. Invest., (1990) 85 : 962-967), whereas heterozygous are lean and normoglycemic. […]
The random blood sugar and triglyceride levels can be measured by collecting blood (100 μl) through orbital sinus, using heparinised capillary in tubes containing EDTA which was centrifuged to obtain plasma. The plasma glucose and triglyceride levels can be measured spectrometrically, by glucose oxidase and glycerol-3-PO4 oxidase/peroxidase enzyme (Dr. Reddy's Lab. Diagnostic Division Kits, Hyderabad, India) methods respectively.

[5] = Swiss albino mice, 3 mg/kg/d oral, 6 days

| melting point | Compound | inhibition in vivo at 3 mg/kg/day ([1]; po) | PPAR fold activation, PPAR α at 50 μM concentration [2] | PPAR fold activation, PPAR γ at 1 μM concentration [3] | inhibition in vivo at 3 mg/kg/day [1, 5] | % of Reduction in Triglyceride [4] | % of reduction in Plasma glucose [4] |
| --- | --- | --- | --- | --- | --- | --- | --- |
|  | CCO[C@@H](Cc1ccc(NCCCn2ccc3cc(OS(C)(=O)=O)ccc32)cc1)C(=O)O [Example 49, (S)-2-Ethoxy-3-[4-{3-(5-methanesulfonyloxyindol-1-yl)propylamino}phenyl]propanoic acid Arginine salt] | 54% | 3.6 fold | 1.5 fold |  |  |  |
| 168 to 170 °C | CCOC(Cc1ccc(NCc2ccc3cc(OS(C)(=O)=O)ccc3c2)cc1)C(=O)O (stereo not shown) [Example 24, 2-Ethoxy-3-[4-{6-methanesulfonyloxynapth-2-ylmethylamino}phenyl]propanoic acid] |  | 7.4 fold | 4.5 fold | 46% |  |  |
|  | CO[C@@H](Cc1ccc(NCCCn2ccc3cc(OS(C)(=O)=O)ccc32)cc1)C(=O)O [Example 50, (S)-2-Methoxy-3-[4-{3-(5-methanesulfonyloxyindol-1-yl)propylamino}phenyl]propanoic acid Arginine salt] | 31% | 3.5 fold | 1.4 fold |  |  |  |
|  | CO[C@@H](Cc1ccc(NCCCn2ccc3ccccc32)cc1)C(=O)O [Example 48, (S)-2-Methoxy-3-[4-{3-(indol-1-yl)propylamino}phenyl]propanoic acid Arginine salt] | 27% | 4.6 fold | 6.1 fold |  |  |  |
|  | CCOC(Cc1ccc(NCCCn2ccc3ccccc32)cc1)C(=O)O (stereo not shown) [Example 47, 2-Ethoxy-3-[4-{3-(indol-1-yl)propylamino}phenyl]propanoic acid Arginine salt] | 60% | 4.8 fold | 6.7 fold |  |  |  |
|  | CO[C@@H](Cc1ccc(NCc2ccc3cc(OS(C)(=O)=O)ccc3c2)cc1)C(=O)O [Example 45, (S)-2-Methoxy-3-[4-{6-methanesulfonyloxynapth-2-ylmethylamino}phenyl]propanoic acid Arginine salt] | 60% | 5.2 fold | 1.4 fold |  | 28% | 32% |
| 118 to 120 °C | CCOC(=O)C(Cc1ccc(NCc2ccc3cc(OS(C)(=O)=O)ccc3c2)cc1)OCC (stereo not shown) [Example 2, Ethyl 2-ethoxy-3-[4-{6-methanesulfonyloxynapth-2-ylmethylamino}phenyl]propanoate] |  | 3.5 fold | 15.5 fold | 50% |  |  |
|  | CCOC(Cc1ccc(NCC2CCc3cc(OS(C)(=O)=O)ccc3C2)cc1)C(=O)O (stereo not shown) [Example 53, 2-Ethoxy-3-[4-{(6-methanesulfonyloxy-1,2,3,4-tetrahydronapth-2-yl)methylamino}phenyl]propanoic acid Arginine salt] | 79% | 3.7 fold | 5.8 fold |  |  |  |
